Measurements as given in ChEMBL document CHEMBL5131388, “Discovery of novel brain-penetrant GluN2B NMDAR antagonists via pharmacophore-merging strategy as anti-stroke therapeutic agents” (Eur J Med Chem, 2022).

How the values were obtained:
[1] = Tmax in Sprague-Dawley rat at 2.5 mg/kg, iv measured up to 24 hrs by LC/MS-MS analysis; assay type: ADME, organism-based; conditions: in vivo
[2] = Neuroprotective activity against NMDA-induced neurotoxicity in Sprague-Dawley rat hippocampal neurons assessed as increase in cell viability at 0.1 uM incubated for 18 hrs followed by NMDA addition and measured after 0.5 hrs by MTT assay; assay type: functional, Hippocampal neurone; conditions: time 18.5 hrs, 0.1 µM
[3] = Neuroprotective activity against NMDA-induced neurotoxicity in Sprague-Dawley rat hippocampal neurons assessed as increase in cell viability at 1 uM incubated for 18 hrs followed by NMDA addition and measured after 0.5 hrs by MTT assay; assay type: functional, Hippocampal neurone; conditions: time 18.5 hrs, 1 µM
[4] = Neuroprotective activity against NMDA-induced neurotoxicity in Sprague-Dawley rat hippocampal neurons assessed as increase in cell viability at 10 uM incubated for 18 hrs followed by NMDA addition and measured after 0.5 hrs by MTT assay; assay type: functional, Hippocampal neurone; conditions: time 18.5 hrs, 10 µM
Glutamate NMDA receptor = assay: Displacement of [3H] ifenprodil from Wistar rat glutamate NMDA receptor incubated for 2 hrs by scintillation counting method; assay type: protein-complex assay
Rattus norvegicus [5] = assay: Neuroprotective activity in Sprague-Dawley rat model of middle cerebral artery occlusion-induced ischemia-reperfusion injury assessed as decrease in neurological score at 20 mg/kg, po measured 24 hrs post injury by TTC staining based histological analysis; assay type: functional
Rattus norvegicus [6] = assay: Neuroprotective activity in Sprague-Dawley rat model of middle cerebral artery occlusion-induced ischemia-reperfusion injury assessed as decrease in cerebral infarction rate at 20 mg/kg, po measured 24 hrs post injury by TTC staining based histological analysis; assay type: functional; parameters: scale not given: the % may be the effect or the level left
[7] = Tmax in Sprague-Dawley rat at 10 mg/kg, po measured up to 24 hrs by LC/MS-MS analysis; assay type: ADME, organism-based; conditions: in vivo
[8] = Cmax in Sprague-Dawley rat at 2.5 mg/kg, iv measured up to 24 hrs by LC/MS-MS analysis; assay type: ADME, organism-based; parameters: dose 2.5 mg/kg, time < 24 hrs, route iv; conditions: in vivo
[9] = Cmax in Sprague-Dawley rat at 10 mg/kg, po measured up to 24 hrs by LC/MS-MS analysis; assay type: ADME, organism-based; parameters: dose 10 mg/kg, time < 24 hrs, route po; conditions: in vivo
[10] = AUClast in Sprague-Dawley rat at 2.5 mg/kg, iv measured up to 24 hrs by LC/MS-MS analysis; assay type: ADME, organism-based; parameters: dose 2.5 mg/kg, time < 24 hrs, route iv; conditions: in vivo
[11] = AUClast in Sprague-Dawley rat at 10 mg/kg, po measured up to 24 hrs by LC/MS-MS analysis; assay type: ADME, organism-based; parameters: dose 10 mg/kg, time < 24 hrs, route po; conditions: in vivo
[12] = AUCinf in Sprague-Dawley rat at 2.5 mg/kg, iv measured up to 24 hrs by LC/MS-MS analysis; assay type: ADME, organism-based; parameters: dose 2.5 mg/kg, time < 24 hrs, route iv; conditions: in vivo
[13] = AUCinf in Sprague-Dawley rat at 10 mg/kg, po measured up to 24 hrs by LC/MS-MS analysis; assay type: ADME, organism-based; parameters: time < 24 hrs, dose 10 mg/kg, route po; conditions: in vivo
[14] = MRTinf in Sprague-Dawley rat at 2.5 mg/kg, iv measured up to 24 hrs by LC/MS-MS analysis; assay type: ADME, organism-based; conditions: in vivo
[15] = MRTinf in Sprague-Dawley rat at 10 mg/kg, po measured up to 24 hrs by LC/MS-MS analysis; assay type: ADME, organism-based; conditions: in vivo
[16] = Clearance in Sprague-Dawley rat at 2.5 mg/kg, iv measured up to 24 hrs by LC/MS-MS analysis; assay type: ADME, organism-based; conditions: in vivo
[17] = Half life in Sprague-Dawley rat at 2.5 mg/kg, iv measured up to 24 hrs by LC/MS-MS analysis; assay type: ADME, organism-based; conditions: in vivo
[18] = Half life in Sprague-Dawley rat at 10 mg/kg, po measured up to 24 hrs by LC/MS-MS analysis; assay type: ADME, organism-based; conditions: in vivo
[19] = Bioavailability in Sprague-Dawley rat at 2.5 mg/kg, iv measured up to 24 hrs by LC/MS-MS analysis; assay type: ADME, organism-based; conditions: in vivo
[20] = Ratio AUClast in Sprague-Dawley rat brain to plasma at 2.5 mg/kg, iv measured up to 24 hrs by LC/MS-MS analysis; assay type: ADME, organism-based; conditions: brain and plasma
[21] = Ratio AUClast in Sprague-Dawley rat brain to plasma at 10 mg/kg, po measured up to 24 hrs by LC/MS-MS analysis; assay type: ADME, organism-based; conditions: brain and plasma
[22] = Toxicity in Sprague-Dawley rat assessed as animal death at 300 mg/kg, po administered as repeated dose once daily for 2 weeks; assay type: organism-based; conditions: in vivo, 336 h
[23] = Toxicity in Sprague-Dawley rat assessed as change in liver/brain index at 150 to 300 mg/kg, po administered as repeated dose once daily for 2 weeks; assay type: organism-based; conditions: in vivo, 336 h, dose 150-300 mg/kg
[24] = Toxicity in Sprague-Dawley rat assessed as change in kidney/brain index at 150 to 300 mg/kg, po administered as repeated dose once daily for 2 weeks; assay type: organism-based; conditions: in vivo, 336 h, dose 150-300 mg/kg
[25] = Toxicity in Sprague-Dawley rat assessed as change in spleen/brain index at 150 to 300 mg/kg, po administered as repeated dose once daily for 2 weeks; assay type: organism-based; conditions: in vivo, 336 h, dose 150-300 mg/kg
[26] = Toxicity in Sprague-Dawley rat assessed as change in white blood cell count at 150 to 300 mg/kg, po administered as repeated dose once daily for 2 weeks; assay type: organism-based; conditions: in vivo, 336 h, dose 150-300 mg/kg
[27] = Toxicity in Sprague-Dawley rat assessed as change in ALT level at 150 to 300 mg/kg, po administered as repeated dose once daily for 2 weeks; assay type: organism-based; conditions: in vivo, 336 h, dose 150-300 mg/kg
[28] = Toxicity in Sprague-Dawley rat assessed as change in AST level at 150 to 300 mg/kg, po administered as repeated dose once daily for 2 weeks; assay type: organism-based; conditions: in vivo, 336 h, dose 150-300 mg/kg
[29] = Toxicity in Sprague-Dawley rat assessed as change in blood pressure at 150 to 300 mg/kg, po administered as repeated dose once daily for 2 weeks; assay type: organism-based; conditions: in vivo, 336 h, dose 150-300 mg/kg
[30] = Toxicity in Sprague-Dawley rat assessed as change in blood glucose level at 150 to 300 mg/kg, po administered as repeated dose once daily for 2 weeks; assay type: organism-based; conditions: in vivo, 336 h, dose 150-300 mg/kg
[31] = Toxicity in Sprague-Dawley rat assessed as body weight loss at 300 mg/kg, po administered as repeated dose once daily for 2 weeks; assay type: organism-based; conditions: in vivo, 336 h
[32] = Toxicity in Sprague-Dawley rat assessed as increase in AST level at 300 mg/kg, po administered as repeated dose once daily for 2 weeks; assay type: organism-based; conditions: in vivo, 336 h

O=C1OC(CCCN2CCN(Cc3ccc(C(F)(F)F)cc3)CC2)c2ccccc21 (racemic)
Tmax [1]: 1.02 min | Activity [2]: 60.14% | Activity [3]: 78.45% | Activity [4]: 89.8% | Ki (Glutamate NMDA receptor): 3.26 nM | Activity (Rattus norvegicus [5]): 1.88 | Activity (Rattus norvegicus [6]): 16.08% | Tmax [7]: 1.5 h | Cmax [8]: 2360 ng/mL | Cmax [9]: 972 ng/mL | AUC(0-t) at 24 h [10]: 1450 ng·h/mL | AUC(0-t) at 24 h [11]: 3670 ng·h/mL | AUC(0-inf) [12]: 1580 ng·h/mL | AUC(0-inf) [13]: 4070 ng·h/mL | MRT inf [14]: 1.68 h | MRT inf [15]: 3.25 h | clearance [16]: 29.5 mL/min/kg | half-life [17]: 1.73 h | half-life [18]: 1.88 h | bioavailability [19]: 63.4% | Kp at 24 h [20]: 0.71 | Kp at 24 h [21]: 0.85 | Activity [22]: Non-Toxic | Activity [23]: Non-Toxic | Activity [24]: Non-Toxic | Activity [25]: Non-Toxic | Activity [26]: Non-Toxic | Activity [27]: Non-Toxic | Activity [28]: Non-Toxic | Activity [29]: Non-Toxic | Activity [30]: Non-Toxic | Activity [31]: Toxic | Activity [32]: Toxic
